Test results from patent US12703728B2, “Interleukin 29 mutant protein” (priority 2020, dated 2026).
Changes are numbered by the printed parent chain. Where two headings read alike, the source gives them in different places.

Legend:
[1] = system: respiratory syncytial virus; assay: In vitro efficacy on RSV-infected human bronchial epithelial cells (HBEC); assay type: cell-based; settings: for Average inhibition rate (%): HBEC, RSV
Description: RSV with a titer of 100, TCID50 (half of the infective dose of tissue culture) was added to each of the activity test wells, culturing the cells in 37° C. and 5% CO2 incubator for 3 days, then RSV RNA was extracted from the cells by using the RNA Extraction Kit (Catlog: 74181, Qiagen), and quantified by RT-qPCR.

novel coronavirus = assay: organism not typed; assay type: cell-based, African green monkey
Vero cells = assay: Toxic effects on Vero cells by CCK-8 assay; settings: 50 μmol/L and below, 48 h, CCK-8
[2] = Toxic effects on Vero cells by CCK-8 assay; settings: African green monkey, Vero cells
HEK293-ISRE-Luc cells = assay type: cell-based; settings: for EC50: HEK293-ISRE-Luc reporter gene method; for EC50/biological activity as compared with IL29 control (in words): reporter gene method
Description: The reporter gene method refers to ligating the promoter of interferon-stimulated response element (ISRE) to alkaline phosphatase cDNA, and transfecting them into HEK293 cells, and evaluating IL29 activity by measuring alkaline phosphatase in supernatant of HEK293 cells after IL29 stimulation (LaFleur D W, Nardelli B, Tsareva T Et al. Interferon-kappa, a novel type I interferon expressed in human keratinocytes. [J]. J. Biol. Chem., 2001, 276:39765-71).
HEK293-ISRE-Luc cells (purchased from National institutes for Food and Drug Control) were allowed to grow adherently in complete culture medium. The cells were passaged at a ratio of 1:4, 2-3 times per week, growing in complete culture medium. The cultured cells were taken to discard the culture medium, and the cells were washed once with PBS and then digested and collected; and the cell suspension containing 3.5×10^5 to 4.5×10^5 cells per 1 ml was prepared with assay culture medium (BIBCO).

[3] = Stability of IL29 mutants at 50° C.; assay type: physicochemical; settings: 50° C./75% relative humidity, reporter gene method
[4] = Stability of IL29 mutants at 50° C.; assay type: physicochemical; settings: 50° C./75% relative humidity; for Reduction on Day 14 as compared with Point 0 (%): reversed-phase HPLC main peak
Description: (§1) The mobile phase A (acetonitrile:water:trifluoroacetic acid, in the volume ratio of 20:80:0.1) and the mobile phase B (acetonitrile:water:isopropanol:trifluoroacetic acid, in the volume ratio of 70:20:10:0.1) were prepared; and a chromatographic column (XBridge BEH C18 Column, 130A, 5 μm, 4.6 mm*100 mm) was used to analyze each test sample of proteins. The analytical conditions were as follows: flow rate 1.0 ml/min, acquisition time: 65 min, acquisition wavelength 214 nm, column temperature 45° C., and elution gradient as shown in Table 1 below.
Two injections of stock solution of a test sample were loaded in parallel, and the loading volume was set as15 μg-20 μg according to the sample concentration; finally, the purity of the main peak of the test sample was calculated by integrating according to the area normalization method.
The details are shown in Table 5, while the purity values at day 0 and 14 in Table 5 were used to make contrast chromatogram, as shown in FIGS. 3-10.

[5] = Nebulization stability test
Description: A jet nebulizer of PARI LCD type and TurboBOY N nebulizer pump from Germany were used for nebulization tests. 2 ml of sample was nebulized, and aerosol was collected in the manner below according to FIG. 11; as for the collected sample, the purity of each test sample of IL29 mutants was detected according to the same method as in Example 2.2.1 by reversed-phase high performance liquid phase, thereby verifying the nebulization stability of each mutant.

[6] = assay type: physicochemical; settings: 25° C./60% relative humidity/5000 lux
Description: as §1
The mobile phase A (25 mmol/L phosphate buffer, pH 7.0) and mobile phase B (25 mmol/L phosphate buffer, 0.5 mol/L sodium chloride, pH 6.7) were prepared, and a chromatographic column (Thermo ProPac WCX-10 4.0*250 mm) was used to analyze each test sample of proteins. The analytical conditions were as follows: flow rate 0.8 ml/min, acquisition time: 55 min, acquisition wavelength 214 nm, column temperature 25° C., and elution gradient as shown in Table 2 below.
The stability of IL29 mutants was detected under the condition 25° C.±2° C./60% relative humidity ±5% relative humidity/5000±500 lux, samples were taken according to Table 6, and the same method in Example 2 was used to detect the stability of IL29 mutants.

[7] = Positive control group, 0.03 μM

O=c1n(Cc2nc3ccccc3n2CCCCO)c2cnccc2n1C1CC1 [BMS-433771]
EC50 ([1]; HBEC cell model, RSV RNA by RT-qPCR): 213 nM | Average inhibition rate (%) ([1]; 10 nM): 31.65% | Average inhibition rate (%) ([1]; 50 nM): 29.30% | Average inhibition rate (%) ([1]; 250 nM): 85.31% | Average inhibition rate (%) ([1]; 1250 nM): 97.91%

CCC(CC)COC(=O)[C@H](C)N[P@](=O)(OC[C@H]1O[C@@](C#N)(c2ccc3c(N)ncnn23)[C@H](O)[C@@H]1O)Oc1ccccc1 [Remdesivir]
Ct Value 1 (novel coronavirus; [7]): 17.05 | Ct Value 2 (novel coronavirus; [7]): 16.86 | Ct Value 3 (novel coronavirus; [7]): 17.71 | Ct Value Mean (novel coronavirus; [7]): 17.21 | Ct Value 1 (novel coronavirus; Positive control group, 0.1 μM): 17.63 | Ct Value 2 (novel coronavirus; Positive control group, 0.1 μM): 17.75 | Ct Value 3 (novel coronavirus; Positive control group, 0.1 μM): 17.57 | Ct Value Mean (novel coronavirus; Positive control group, 0.1 μM): 17.65 | Ct Value 1 (novel coronavirus; Positive control group, 0.3 μM): 20.83 | Ct Value 2 (novel coronavirus; Positive control group, 0.3 μM): 20.76 | Ct Value 3 (novel coronavirus; Positive control group, 0.3 μM): 19.75 | Ct Value Mean (novel coronavirus; Positive control group, 0.3 μM): 20.45 | Ct Value 1 (novel coronavirus; Positive control group, 1 μM): 27.63 | Ct Value 2 (novel coronavirus; Positive control group, 1 μM): 26.97 | Ct Value 3 (novel coronavirus; Positive control group, 1 μM): 26.91 | Ct Value Mean (novel coronavirus; Positive control group, 1 μM): 27.17 | Ct Value 1 (novel coronavirus; Positive control group, 3 μM): 30.57 | Ct Value 2 (novel coronavirus; Positive control group, 3 μM): 33.96 | Ct Value 3 (novel coronavirus; Positive control group, 3 μM): 33.11 | Ct Value Mean (novel coronavirus; Positive control group, 3 μM): 32.55 | Ct Value 1 (novel coronavirus; Positive control group, 10 μM): 34.85 | Ct Value 2 (novel coronavirus; Positive control group, 10 μM): 33.56 | Ct Value 3 (novel coronavirus; Positive control group, 10 μM): 34.75 | Ct Value Mean (novel coronavirus; Positive control group, 10 μM): 34.39 | inhibition at 0.03 µM (novel coronavirus; Vero, Positive control group, 0.03 μM, read-out: Average inhibition rate (%)): 17.5% | inhibition at 0.1 µM (novel coronavirus; Vero, Positive control group, 0.1 μM, read-out: Average inhibition rate (%)): 39.3% | inhibition at 0.3 µM (novel coronavirus; Vero, Positive control group, 0.3 μM, read-out: Average inhibition rate (%)): 91.3% | inhibition at 1 µM (novel coronavirus; Vero, Positive control group, 1 μM, read-out: Average inhibition rate (%)): 99.9% | inhibition at 3 µM (novel coronavirus; Vero, Positive control group, 3 μM, read-out: Average inhibition rate (%)): 100% | inhibition at 10 µM (novel coronavirus; Vero, Positive control group, 10 μM, read-out: Average inhibition rate (%)): 100% | IC50 (novel coronavirus; Vero, positive control group): 120 nM | inhibition against the virus (novel coronavirus; positive control group, concentrations of 0.3 µM and above): ≥ 90% | toxic effect on Vero cells (Vero cells): no obvious toxic effect | CC50 at 48 h [2]: > 50000 nM

B1: IL29DE (protein)
chain: MKPTTTGKGCHIGRFKSLSPQELASFKKARDALEESLKLKNWSCSSPVFPGNWDLRLLQVRERPVALEAELALTLKVLEAAAGPALEDVLDQPLHTLHHILSQLQACIQPQPTAGPRPRGRLHHWLHRLQEAPKKESAGCLEASVTFNLFRLLTRDLKYVAEGNLCLRTSTHPEST
Relative biological activity (%) (HEK293-ISRE-Luc cells): 282% | EC50 (HEK293-ISRE-Luc cells): 1.697 ng/mL | EC50/biological activity as compared with IL29 control (in words) (HEK293-ISRE-Luc cells): increased by nearly three times | biological activity in 14 days at 50° C. [3]: basically unchanged | Main peak (%), reversed-phase HPLC purity ([4]; Day 7): 89.35% | Main peak (%), reversed-phase HPLC purity ([4]; Day 14): 77.39% | Main peak (%), reversed-phase HPLC purity ([4]; Point 0): 92.68% | Reduction on Day 14 as compared with Point 0 (%) [4]: 15.29%

B2: IL29CS (protein)
chain: B1 chain with E162D, C166S
EC50 (HEK293-ISRE-Luc cells): 4.639 ng/mL | EC50/biological activity as compared with IL29 control (in words) (HEK293-ISRE-Luc cells): essentially no change | Reverse-phase purity After nebulization [5]: 85.26% | Reverse-phase purity Before nebulization ([5]; jet nebulizer, 2 ml sample): 96.65% | Difference between purity before and after nebulization ([5]; reverse-phase purity): 10.39% | Ion exchange purity (%) ([6]; day 0): 97.00% | Reversed-phase HPLC purity (%) ([6]; day 0): 95.361% | Ion exchange purity (%) ([6]; day 5): 89.28% | Reversed-phase HPLC purity (%) ([6]; day 5): 90.756% | Ion exchange purity (%) ([6]; day 10): 77.14% | Reversed-phase HPLC purity (%) ([6]; day 10): 84.30% | Main peak (%), reversed-phase HPLC purity ([4]; Day 7): 64.66% | Main peak (%), reversed-phase HPLC purity ([4]; Day 14): 46.20% | Main peak (%), reversed-phase HPLC purity ([4]; Point 0): 97.03% | Reduction on Day 14 as compared with Point 0 (%) [4]: 50.83%

B3: IL29 control: IL29 wild-type protein, amino acid sequence SEQ ID NO: 1 with an additional M amino acid at the N-terminal (protein)
chain: KPTTTGKGCHIGRFKSLSPQELASFKKARDALEESLKLKNWSCSSPVFPGNWDLRLLQVRERPVALEAELALTLKVLEAAAGPALEDVLDQPLHTLHHILSQLQACIQPQPTAGPRPRGRLHHWLHRLQEAPKKESAGCLEASVTFNLFRLLTRDLKYVADGNLCLRTSTHPEST
modifications: additional N-terminal Met
EC50 (HEK293-ISRE-Luc cells): 4.783 ng/mL | Main peak (%), reversed-phase HPLC purity ([4]; Day 7): 56.70% | Main peak (%), reversed-phase HPLC purity ([4]; Day 14): 34.46% | Main peak (%), reversed-phase HPLC purity ([4]; Point 0): 85.82% | Reduction on Day 14 as compared with Point 0 (%) [4]: 51.36%
